Source: article PMC12196476, “New Nitrogen-, Oxygen-, and Sulfur-Containing Heterocyclic Compounds as Anti-Colon Cancer Agents: Synthesis, Multitargeted Evaluations, Molecular Docking Simulations and ADMET Predictions” (Pharmaceuticals, 2025)

Columns and labels:
[1] = test system: HCT-116 cells; assay: Annexin V-FITC/PI apoptosis assay, HCT-116; assay type: cell-based, human; conditions: 30 µg/mL, 48 h
Experimental: Translocation of phosphatidylserine (PS) residues on the cell surface is an early apoptosis indicator, detectable through flow cytometric analysis and using double staining with propidium iodide (PI) dye and fluorescein isothiocyanate (FITC)-conjugated Annexin V (Annexin V-FITC). […]
μg/mL for 48 h. […]
S3.2.6. Annexin-V-FITC assay. […]
treatment with compound 3d. HCT-116 and LoVo cells were treated with vehicle (DMSO) and 3d […]
in Annexin-V binding buffer (BioVision Research Products, USA). The cells were then stained with Annexin V-FITC and propidium iodide (PI). Using the FITC signal detector (usually FL1) for […]
of stained cancerous cells were determined. […]

[2] = target: PDK-1 (Homo sapiens, UniProt Q15118); assay: In vitro PDK-1 inhibition assay (Kinase-Glo luminescent kinase kit); assay type: biochemical
[3] = Cell viability, LDH release assay, normal HUVECs; conditions: human, normal HUVECs, Mean % of viable cells ± SD, HUVEC

Sequence of PDK-1 (Q15118 29-436): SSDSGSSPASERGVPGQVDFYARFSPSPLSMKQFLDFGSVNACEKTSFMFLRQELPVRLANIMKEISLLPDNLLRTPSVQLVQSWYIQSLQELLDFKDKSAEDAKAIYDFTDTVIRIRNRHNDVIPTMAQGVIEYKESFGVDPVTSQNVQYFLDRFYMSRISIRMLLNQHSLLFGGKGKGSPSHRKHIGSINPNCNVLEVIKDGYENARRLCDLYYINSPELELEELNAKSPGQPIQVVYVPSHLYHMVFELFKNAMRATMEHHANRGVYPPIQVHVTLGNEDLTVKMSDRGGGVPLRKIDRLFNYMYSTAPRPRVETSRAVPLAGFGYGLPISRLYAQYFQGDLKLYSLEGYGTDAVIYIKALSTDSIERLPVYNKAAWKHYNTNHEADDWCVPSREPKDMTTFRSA

inhibition at 100 µg/mL ([2]; 100 µg/mL, three replicates, read-out: Mean Inhibition Percent ± SD, PDK-1): 41.8 ± 3.39% | IC50 ([2]; three independent experiments, read-out: Mean IC50 µM ± SD, PDK-1): 305 ± 11.1 µM
SMILES: COc1cc(/C=N/c2ncnc3sc4c(c23)CCCC4)cc(OC)c1OC [Compound 3d, (E)-N-(5,6,7,8-Tetrahydrobenzo[4,5]thieno[2,3-d]pyrimidin-4-yl)-1-(3,4,5-trimethoxyphenyl)methanimine]
Necrotic population (Annexin-V−/PI+), HCT-116 ([1]; Figure 3D plot): 1.53% | Late apoptotic cells (both Annexin-V and PI positive), HCT-116 ([1]; Figure 3D plot, control 0.15%): 3.63% | Early apoptotic cells (Annexin V-FITC positive and PI negative), HCT-116 ([1]; Figure 3D plot, control 0.46%): 19.02% | % of cell population, Mean necrosis (HCT-116) ([1]; mean of two independent experiments (Figure 3E)): 1.63% | % of cell population, Mean total death (HCT-116) ([1]; mean of two independent experiments (Figure 3E), text calls it total apoptosis): 25.11% | viability at 48 h, 100 µg/mL [3]: ~90%
